Experiments:
Test in all cases: relative viability (nuclei count vs DMSO), 5 days (fraction); higher = more cells survive
[1] = compound: CCN(CCO)CCCC(C)Nc1ccnc2cc(Cl)ccc12 [Hydroxychloroquine] + CCNC(=O)c1noc(-c2cc(C(C)C)c(O)cc2O)c1-c1ccc(CN2CCOCC2)cc1 [Luminespib] (partner 0.01 µM)
Outline: (§1)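 Relative viability was taken as the ratio of nuclei in treated wells to nuclei in vehicle wells. Lung cancer cell lines in 1536-well plates received compounds by pin tool one day after seeding, either one drug alone or a fixed anchor-drug dose plus five library-drug doses (not always all listed) in √10 steps. Nuclei were counted on 4× images after 5 days of treatment, and values are medians of duplicate plates.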

[2] = compound: CCN(CCO)CCCC(C)Nc1ccnc2cc(Cl)ccc12 [Hydroxychloroquine] + CC(C)C[C@H](NC(=O)[C@H](Cc1ccccc1)NC(=O)c1cnccn1)B(O)O [Bortezomib] (partner 0.002 µM)
Outline: as §1

[3] = compound: CCN(CCO)CCCC(C)Nc1ccnc2cc(Cl)ccc12 [Hydroxychloroquine] + Cc1nc(Nc2ncc(C(=O)Nc3c(C)cccc3Cl)s2)cc(N2CCN(CCO)CC2)n1 [Dasatinib] (partner 0.075 µM)
Outline: as §1

[4] = compound: CCN(CCO)CCCC(C)Nc1ccnc2cc(Cl)ccc12 [Hydroxychloroquine] + CC(=O)c1c(C)c2cnc(Nc3ccc(N4CCNCC4)cn3)nc2n(C2CCCC2)c1=O [Palbociclib] (partner 0.5 µM)
Outline: as §1

Cell Line	relative viability ([1]; first compound 0.5 µM)	relative viability ([1]; first compound 1.581 µM)	relative viability ([1]; first compound 5 µM)	relative viability ([1]; first compound 15.81 µM)	relative viability ([1]; first compound 50 µM)	relative viability ([2]; first compound 0.5 µM)	relative viability ([2]; first compound 1.581 µM)	relative viability ([2]; first compound 5 µM)	relative viability ([2]; first compound 15.81 µM)	relative viability ([2]; first compound 50 µM)	relative viability ([3]; first compound 0.5 µM)	relative viability ([3]; first compound 1.581 µM)	relative viability ([3]; first compound 5 µM)	relative viability ([3]; first compound 15.81 µM)	relative viability ([3]; first compound 50 µM)	relative viability ([4]; first compound 0.5 µM)	relative viability ([4]; first compound 1.581 µM)	relative viability ([4]; first compound 5 µM)	relative viability ([4]; first compound 15.81 µM)	relative viability ([4]; first compound 50 µM)
NCI-H727	0.265	0.423	0.318	0.464	0.779	0.975	0.749	0.89	0.823	0.885	0.337	0.379	0.471	0.43	0.457	0.643	0.552	0.561	0.661	0.688
NCI-H1993	0.943	0.789	0.846	0.864	0.928	1.01	0.884	1.04	1.13	1.03	0.597	0.699	0.87	0.547	0.566	0.6	0.575	0.692	0.662	0.693
NCI-H1437	1.2	1.1	1.18	1.04	1.24	0.516	0.737	0.505	0.483	0.446	0.371	0.493	0.375	0.429	0.509	0.291	0.328	0.328	0.295	0.336
NCI-H441	0.361	0.334	0.328	0.417	0.329		0.426	0.453	0.552	0.77	0.608	0.559	0.66	0.496	0.684	0.217	0.187	0.185	0.192	0.204
201T	0.992	1.04	1.07	1.03	1.05	1.07	1.09	1.1	1.07	1.11	0.582	0.578	0.598	0.606	0.608	0.339	0.351	0.378	0.379	0.384
ChaGo-K-1	0.615	0.626	0.55	0.594	0.643	1.04	0.895	0.687	1.06	1.02	0.626	0.593	0.537	0.593	0.626	0.967	0.942	0.912	0.975	0.989
NCI-H1650	0.178	0.173	0.203	0.227	0.193	0.203	0.221	0.218	0.227	0.219	0.425	0.357	0.241	0.296	0.303	0.291	0.341	0.317	0.323	0.355
LOU-NH91	0.369	0.313	0.307	0.345	0.371	0.467	0.507	0.492	0.475	0.539	0.559	0.453	0.588	0.581	0.593	0.534	0.562	0.5	0.55	0.531

From the supplement of paper PMC10307832
